Reference: publication PMC5460016, “Inhibition of gelatinase B/MMP-9 does not attenuate colitis in murine models of inflammatory bowel disease” (Nature Communications, 2017)

Key:
[1] = competitive ELISA, plasma of DSS-treated mice, all three administration schemes
Procedure: To ensure that therapeutic levels of peptide inhibitors A and B were attained during all three administration schemes, plasma levels were measured with competitive ELISAs as described previously.
Supplementary figure 8: Levels of peptide inhibitors A and B in plasma of DSS-treated mice at time of sacrifice. (a) Plasma levels of peptide inhibitor A measured with ELISA in DSS-treated mice that received either peptide inhibitor A (n=19) or saline (n=9) injections for all three different administration schemes (therapeutic, prophylactic and continuous).
(b) Similar ELISA analyses […]
were performed for detection of peptide inhibitor B in plasma of DSS-treated mice (n=19). This […]
similar as in Figures 9 and 10. Box plots are shown with 5-95 percentiles.
(1 picture or pasted object on this page, not shown here)

[2] = system: C57BL/6J mice with acute DSS-induced colitis; experiment: Treatment of acute DSS-induced colitis with peptide inhibitors; conditions: for severity of intestinal inflammation by histopathological analysis (histological inflammation and activity scores): all three administration schemes (therapeutic, prophylactic, osmotic pump); for body weight loss at time of killing: Mann-Whitney U
Source text: Acute and chronic dextran sodium sulphate (DSS) colitis were induced as described previously[13][39]. Acute colitis was induced in 8–10 weeks old male and female mice by oral administration of 2–3% DSS (35–50 kDa; MP Biomedicals, Illkirch, France) in the drinking water during 7 days followed by 2–3 days on normal drinking water. All mice were killed at day 9 (Fig. 1a). […] Control mice (WT and MMP-9^−/−) received normal drinking water throughout the duration of the experiment. The body weight of the mice was monitored daily or every other day in case of the acute model, whereas in the chronic model, body weight was followed every 3–4 days. Of importance, WT and MMP-9^−/− mice were co-housed (maximally 5 mice per cage) during the experiments ensuring identical environmental conditions as well as controlling for cage-related effects (for example, coprophagia and intake of food and (DSS-supplemented) drinking water). Both the acute and chronic DSS experiments were repeated three times whereby results could be replicated each time and in total 79 mice were used in the acute models and 35 mice in the chronic models. The number of mice needed was estimated based on previous experience[13] and included at least 5 mice per group to ensure adequate power of detection. […] These mice were excluded from further analyses. […] No randomization was applied before start of the experiments.
Animals were euthanized with sodium pentobarbital (Nembutal, Ovation Pharmaceuticals Inc. Deerfield, USA). The DAI was calculated based on three parameters: loss of body weight (one point for each 5% loss of body weight), consistency of stools (normal=0, soft=2, liquid=4) and presence of gross blood in stools (0=none, 1=present)[13][39]. The colon was isolated, weighted and its length measured from the ileocecal junction to the anus. […] The macroscopic damage score was calculated based on extent of inflammation along the colon (in cm, multiplied by 2 if severe), colonic mesenterial adhesion (0=none, 1=mild, 2=severe) and colonic hyperaemia (0=none and 1=present)[13][39].
Acute colitis was induced in male and female mice via administration of 2% DSS in the drinking water for 7 days followed by 2–4 days on normal drinking water.

[3] = system: MMP-8; conditions: Supplementary table 2; no method in this paper; known effects; read-out: IC50 towards MMP-8; cited from earlier work
Source text: (§1) page 11: Supplementary table 2: IC50 values of peptide inhibitors A and B towards MMP -3, -8, -9 and TACE (μM). Name Peptide sequences† MMP-3 MMP-8 MMP-9 TACE Peptide inhibitor […] No inhibition 17.6 12.5 7.0 (CPU 1) Peptide inhibitor […] 7.0 0.036 0.16 15 (CPU 2) † Peptide sequences are in one-letter codes for amino acids. Pyr stands for pyridylalanine. Supplementary table 3: Primer sequences used for qRT-PCR analyses. Gene Forward primer Reverse primer Probe Mmp3 [NT] Mmp8 ...

[4] = system: MMP-3; conditions: Supplementary table 2, no method in this paper, known effects, cited from earlier work
Source text: as §1

[5] = system: MMP-9; conditions: Supplementary table 2; no method in this paper; known effects; read-out: IC50 towards MMP-9; cited from earlier work
Source text: as §1

[6] = system: TACE; conditions: Supplementary table 2; no method in this paper; known effects; read-out: IC50 towards TACE; cited from earlier work
Source text: as §1

[7] = system: Mmp3, Mmp8, Mmp9 mRNA in colonic mouse tissue; experiment: Colonic mRNA expression of Mmps (quantitative RT-PCR) after peptide inhibitor administration; type: in vivo; conditions: DSS mice
Source text: Figure 10 Relative mRNA expression of specific Mmps and Tace after administration of peptide MMP inhibitors. Relative mRNA expression measured in colonic mouse tissue after a therapeutic injection scheme (n=16) (a), a prophylactic injection scheme (n=23) (b) and continuous osmotic pump delivery (n=22) (c) of peptide inhibitors A and B. Expression levels were normalized to the control condition (water+saline) and 18S with the use of the 2-delta delta CT method. Mean values with s.e.m. are shown. Statistical analyses were performed with Mann–Whitney U tests (*P<0.05, **P≤0.01; NS, not significant). Colour codes are similar as in Figs 8 and 9.
Snap-frozen mouse colonic fragments were mechanically homogenized with the use of Precellys 24 homogenizer (VWR, Leuven, Belgium). Total RNA was extracted according to the manufacturer's guidelines (RNeasy Mini kit, Qiagen, Hilden, Germany, #74104) and quantified with the use of a Nanodrop ND-1000 Spectrophotometer (Isogen Life Science, Temse, Belgium). cDNA was synthesized with the use of High-Capacity cDNA Reverse Transcription Kit (Applied Biosystems, Foster City, CA, USA). Mmp3, Mmp8, Mmp9 and Tace mRNA levels were analysed in duplicate on 25 ng cDNA by quantitative RT-PCR with the use of TaqMan Universal PCR Master Mix from Applied Biosystems and primer and probe sets from Integrated DNA Technologies (Leuven, Belgium; Supplementary Table 3). Data were normalized to 18S ribosomal RNA levels.

[8] = continuous osmotic pump delivery, DSS mice, versus saline
[9] = prophylactic scheme: daily i.p. 250 μg from day 1, 2% DSS mice, versus saline
[10] = therapeutic or prophylactic schemes (daily i.p. 250 μg), DSS mice
[11] = therapeutic scheme: daily i.p. 250 μg from day 6, 2% DSS mice, versus saline

Substance | plasma levels of peptide inhibitor at time of sacrifice [1] | severity of intestinal inflammation by histopathological analysis (histological inflammation and activity scores) ([2]; DSS mice) | other colonic measurements (colon weight, colon/body weight ratio and colon weight/length ratio) [2, 8] | body weight loss [2, 9] | disease activity index (DAI) [2, 9] | macroscopic damage score [2, 10] | disease activity index (DAI) [2, 11] | body weight loss at time of killing [2, 11] | IC50 [3] [µM] | IC50 [5] [µM] | IC50 [6] [µM] | further results
P(Pyr)CBRGE-GGGG-IVRRADRAAVP [Peptide inhibitor A] | inhibitory plasma levels were indeed reached | did not observe a significant effect | not significantly different | no differences were observed | not significantly different | not altered | no difference was observed | no difference in body weight loss | 17.6 | 12.5 | 7 | colon length ([2]; continuous osmotic pump delivery, DSS mice, versus peptide inhibitor B or saline): significantly longer; macroscopic damage score [2, 8]: lower macroscopic damage score; body weight loss ([2]; continuous s.c. osmotic pump delivery, 30 mg kg−1 per day, DSS mice, versus peptide inhibitor B and saline): mild protection with lower loss of body weight; disease activity index (DAI) ([2]; continuous s.c. osmotic pump delivery, 30 mg kg−1 per day, DSS mice, versus peptide inhibitor B or saline): significantly lower DAI; IC50 towards MMP-3 [4]: No inhibition
IVRRADRAAVP-GGGG-P(Pyr)CBRGE [Peptide inhibitor B] | inhibitory plasma levels were indeed reached | did not observe a significant effect | not significantly different | no differences were observed | not significantly different | not altered | higher | significantly more body weight loss | 0.036 | 0.16 | 15 | colonic Mmp8 and Mmp3 mRNA expression ([7]; continuous osmotic pump delivery, compared to saline): significantly higher; colonic Mmp9 mRNA expression ([7]; continuous osmotic pump delivery, compared with peptide inhibitor A or saline): significantly increased; colonic expression of Mmp9 mRNA ([7]; prophylactic scheme, compared to saline, qRT-PCR normalized to 18S): significantly increased expression of Mmp9; colonic expression of Mmp3, Mmp8 and Mmp9 mRNA ([7]; therapeutic scheme, compared to peptide inhibitor A or saline, qRT-PCR normalized to 18S): appeared to be higher; IC50 ([4]; read-out: IC50 towards MMP-3): 7 µM
